# From PubChem BioAssay AID1288 (Columbia University Molecular Screening Center, 2008)
# Calls of active or inactive are those of the source. No rule for the calls is given here.
# Assay: E-selectin induction blockers, endothelial cells – imaging, retest plus dose response, cell count, confirmation (AID 1288);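 also: 0% = stimulated vehicle wells and 100% = unstimulated vehicle wells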
# Conditions: human endothelial cells, TNFa-induced E-selectin, imaging; at 2 µM; stronger effect = higher value
row,SMILES,inhibition
1,CCCNc1ncnc2sc(C)c(C)c12,12.7% (inactive)
2,Oc1ccc(-c2csc(-c3ccccc3)n2)cc1O,35.9% (inactive)
3,Cc1ccc(-n2c(SCC(=O)Nc3ccc4c(c3)OCCO4)nnc2-c2ccco2)cc1,5.17% (inactive)
4,O=C(NC(=O)c1cccc(OC(F)(F)C(F)F)c1)OC1CCS(=O)(=O)C1 (stereo not drawn),22.5% (inactive)
5,CCCCCCOC(=O)C1=C(C)NC(=O)NC1c1ccc(O)cc1 (stereo not drawn),13.9% (inactive)
6,Cc1ccc2c(c1)C(c1ccc(F)cc1)N(C(=O)c1cc3ccccc3oc1=O)CC(=O)N2 (stereo not drawn),-3.89% (inactive)
7,O=c1ccc2ccc(OCc3nnc(-c4ccccc4Br)o3)cc2o1,2.48% (inactive)
8,CC1Cc2cc(/C(O)=C3/C(=O)C(=O)N(CCCn4ccnc4)C3c3ccncc3)ccc2O1 (stereo not drawn),5.53% (inactive)
9,N#Cc1ccsc1NC(=O)COC(=O)c1ccc2ccccc2c1,5.46% (inactive)
10,Fc1ccccc1SCc1nnc(-c2ccccc2Br)o1,9.24% (inactive)
11,C=CCN1CCN(C(c2cc(OC)ccc2OC)c2nnnn2CC2CCCO2)CC1 (stereo not drawn),31.2% (inactive)
12,CC(OC(=O)CCN1C(=O)c2cccc([N+](=O)[O-])c2C1=O)C(=O)Nc1cc(Cl)cc(Cl)c1 (stereo not drawn),36.2% (inactive)
13,CN(C)CCNC(=O)/C(=C/c1ccc(-c2ccc(Cl)cc2)o1)NC(=O)c1ccccc1,0.09% (inactive)
14,O=c1[nH][nH]cc1C=Nc1ccc(Cl)cc1,46.9% (inactive)
15,COc1ccc(-c2nc3cnccn3c2NC(C)(C)CC(C)(C)C)cc1O,6.02% (inactive)
16,N/C(Cc1ccc([N+](=O)[O-])cc1)=N\OC(=O)COc1ccc2ccccc2c1,12.6% (inactive)
17,Cc1cc(=O)[nH]c(SCC(=O)NCc2ccco2)n1,5.37% (inactive)
18,CCN(C(=O)COC(=O)c1cc(C)n(-c2ccc(F)cc2)c1C)C1CCS(=O)(=O)C1 (stereo not drawn),2.1% (inactive)
19,COc1cc(C(=O)Nc2ccc3c(c2)C(=O)c2ccccc2C3=O)cc(OC)c1OC,12.8% (inactive)
20,O=C(c1ccc(COCC(F)(F)F)o1)N1CCCCCC1,5.74% (inactive)
21,COC(=O)c1cc2oc(C)cc2n1CC(=O)N1CCCc2ccccc21,9.68% (inactive)
22,O=C1c2ccccc2C(Nc2ccc(S(=O)(=O)N3CCCCCC3)cc2)N1Cc1ccco1 (stereo not drawn),1.55% (inactive)
23,Cn1cc(Cl)c(C(=O)NNC(=S)NCc2ccco2)n1,7.71% (inactive)
24,CC(=O)OC(C(=O)NCc1ccco1)c1cccnc1 (stereo not drawn),6.49% (inactive)
25,Cc1ccc(/C=C2\SC(N)=NC2=O)s1,1.87% (inactive)

row,SMILES,inhibition
1,O=C(CCl)N1N=C(c2ccco2)CC1c1cccs1 (stereo not drawn),26.9% (inactive)
2,CSc1ccc(/C=N/NC(=O)CN2CCN(Cc3ccc(C)cc3)CC2)cc1,-1.62% (inactive)
3,O=C(Nc1ccc(Cl)cc1)c1cc2nc(-c3ccco3)cc(C(F)(F)F)n2n1,14.3% (inactive)
4,CCc1n[nH]c2c1C(=O)CC(C)(C)C2,18% (inactive)
5,Cc1ccc(NC(=O)CSc2nc3ccccc3c3nc(CCc4c(C)n[nH]c4C)nn23)cc1F,47.2% (inactive)
6,C/C(=N\Nc1cccc2cccnc12)c1ccccc1O,-0.47% (inactive)
7,Cn1c(=O)[nH]c(=O)c2c1nc(N1CCCCC1)n2CCCSc1nnnn1-c1ccccc1,10.1% (inactive)
8,COC(=O)c1nnn(-c2ccc(Cl)c(Cl)c2)c1C(=O)OC,11.3% (inactive)
9,COc1cccc(/C=N/NC(=O)c2c(-c3ccccc3)noc2C)c1,4.18% (inactive)
10,CCOc1ccc(OCC)c(NC(=O)CN2CCN(c3cccc(C)c3)CC2)c1,-3.01% (inactive)
11,CC(C)n1c(SCC(=O)Nc2nc3c(s2)CCCC3)nc2c1c(=O)n(C)c(=O)n2C,3.36% (inactive)
12,COC(=O)CCC(=O)Nc1nc(-c2ccccc2)cs1,16.6% (inactive)
13,c1nc(NCCN2CCOCC2)c2sc3nc(N4CCOCC4)c4c(c3c2n1)CCC4,34.1% (inactive)
14,CCCOc1ccc(C(=O)NCC(c2cccs2)N(C)C)cc1 (stereo not drawn),-0.69% (inactive)
15,COc1ccc(N(CC(=O)Nc2ccc3c(c2)OCO3)S(C)(=O)=O)c(OC)c1,-1.1% (inactive)
16,CCOC(=O)c1c(C)[nH]c(C(=O)OCCOc2ccccc2C)c1C,0.85% (inactive)
17,COC(=O)c1cc2c(s1)CS(=O)C2 (stereo not drawn),14.6% (inactive)
18,O=c1ncn(-c2ccccc2F)c2ncccc12,1.5% (inactive)
19,C/C(=N\Nc1cc(-c2ccccc2)nc(-c2ccccc2)n1)c1ccc(O)c(C)c1,5.91% (inactive)
20,Cn1c(SCC(=O)N2CCOCC2)nnc1-c1cccc(NC(=O)c2ccccc2)c1,-2.57% (inactive)
21,CC(Sc1nnc(-c2cccs2)n1Cc1ccccc1)C(=O)NCc1ccc2c(c1)OCO2 (stereo not drawn),1.65% (inactive)
22,COc1ccc(Cc2nnc(NC(=O)Cc3cccs3)s2)cc1,1.69% (inactive)
23,C=CCNS(=O)(=O)c1nc(C)c(Cl)c(C)c1C#N,0.74% (inactive)
24,CCS(=O)(=O)c1ccc2oc(Nc3ccc(C(C)C)cc3)nc2c1,4.39% (inactive)
25,COc1ccccc1NC(=S)N(Cc1ccco1)Cc1cc2cccc(C)c2[nH]c1=O,30.6% (inactive)

row,SMILES,inhibition
1,CCSc1nnc(-c2cccs2)o1,6.52% (inactive)
2,CCN(CC)CCNS(=O)(=O)c1ccc(/C=C/C(=O)O)cc1,13.4% (inactive)
3,COc1ccc(NC(=O)CN(C)CC(=O)Nc2ccccc2SC)cc1,-3.18% (inactive)
4,Cn1c(=O)[nH]c(=O)c2c1nc(CN1CCN(Cc3ccccc3)CC1)n2CC(N)=O,8.32% (inactive)
5,CC(=O)c1cccc(NS(=O)(=O)N2CCCCC2)c1,-4.42% (inactive)
6,CCCCn1c2nc3ccccc3nc2c2c(=O)n(-c3ccccc3)cnc21,-1.49% (inactive)
7,O=C(/C=C/c1ccc2c(c1)OCO2)Nc1nc2ccccc2s1,16.2% (inactive)
8,C/C(=N\NC(=O)CN(c1ccccc1Br)S(C)(=O)=O)c1ccc2c(c1)OCCO2,1.65% (inactive)
9,Cn1c(O)c(C(=N)COc2cccc(Cl)c2)c(=O)n(C)c1=O,18.8% (inactive)
10,Cn1c(=O)c2c(nc(SCC(=O)NC34CC5CC(CC(C5)C3)C4)n2C)n(C)c1=O,16.3% (inactive)
11,CN1CCN(S(=O)(=O)c2ccc(NC(=O)c3ccc(F)cc3)cc2)CC1,5.58% (inactive)
12,COc1ccccc1N(Cc1ccccc1)S(=O)(=O)c1cccc(C(=O)Nc2ccc(C(C)=O)cc2)c1,14.8% (inactive)
13,CCCCOc1ccc(/C=C/C(=O)OCC(=O)NC(=O)NCC(C)C)cc1OCC,15.1% (inactive)
14,CCOC(=O)CSc1nc2cc(OC)ccc2cc1C#N,11.6% (inactive)
15,CCS(=O)(=O)N1CCCC(C(=O)NCc2cccc(OC)c2)C1 (stereo not drawn),12.7% (inactive)
16,CCn1c(SCC(=O)Nc2ccccc2OC)nnc1-c1cnccn1,6.59% (inactive)
17,COC(=O)C1=NN(c2cccc(C)c2)C2C(=O)N(c3ccccc3OC)C(=O)C12 (stereo not drawn),8.46% (inactive)
18,CSc1nc(=O)n2cc(C)ccc2n1,1.88% (inactive)
19,Cc1cc(=O)n2nc(-c3ccccc3)sc2c1C#N,1.2% (inactive)
20,CN1c2ccccc2C2(C)CCCC3=Cc4cccc([N+](=O)[O-])c4OC312 (stereo not drawn),2.99% (inactive)
21,O=[N+]([O-])c1ccc(O)c(/C=N/Nc2ccc(Cl)nn2)c1,3.18% (inactive)
22,CN(c1ccc(C(=O)NCC2CCCO2)cc1)S(C)(=O)=O (stereo not drawn),6.07% (inactive)
23,CC(=O)Nc1ccccc1Sc1ccc2c3c(cccc13)C(=O)N(c1ccc(C)cc1)C2=O,-0.84% (inactive)
24,CCc1ccc(CC2S/C(=C(\C#N)C(C)=O)NC2=O)cc1 (stereo not drawn),5.01% (inactive)
25,COc1ccc(-c2ccc(C(=S)N3CCN(C(C)=O)CC3)o2)cc1,3.01% (inactive)

row,SMILES,inhibition
1,CC(C)C(C(=O)O)N1CCS(=O)(=O)CC1 (stereo not drawn),7.68% (inactive)
2,Cc1ccc(CNC(=O)CCc2nc3ccccc3c(=O)[nH]2)cc1,15.6% (inactive)
3,COc1ccc(-n2c(C)cc(C(=O)COc3ccc(C)nc3[N+](=O)[O-])c2C)cc1,31.4% (inactive)
4,O=C(N/N=C1/CCS(=O)(=O)c2ccc(F)cc21)c1ccccn1,8.24% (inactive)
5,Cc1cc(C(=O)CN2C(=O)CCC2=O)c(C)n1Cc1ccccc1,13.3% (inactive)
6,O=C(CO/N=C/c1ccccc1OC(F)F)NCc1cccs1,1.25% (inactive)
7,Cc1cc(C)c2cc(CN(Cc3ccc4c(c3)OCO4)Cc3nnnn3Cc3ccco3)c(=O)[nH]c2c1,-1.09% (inactive)
8,CC(C)(C)c1ccc(OCCCNCc2ccccc2)cc1,-6.22% (inactive)
9,O=S(=O)(c1ccccc1)N1CCN(CC(O)COc2ccc3c(c2)CCC3)CC1 (stereo not drawn),4.13% (inactive)
10,Cc1ccc(C2CC(=O)N(c3ccc(F)cc3)C3=C2C(=O)CCC3)cc1 (stereo not drawn),4.74% (inactive)
11,CCOC(=O)N1CCC(NC(=O)CN2C(=O)CSc3nc(C)cc(C)c32)CC1,3.53% (inactive)
12,Cc1nc2ccccc2c(=O)n1/N=C/c1ccc(O)cc1,4.58% (inactive)
13,O=C(O)C1C2C=CC(C2)C1C(=O)NCCCc1ccccc1 (stereo not drawn),3.67% (inactive)
14,COc1ccccc1N1CCN(c2cc(N3CCCC3)nc(C)n2)CC1,-3.57% (inactive)
15,CCN1C(=O)/C(=C\c2cn(-c3ccccc3)nc2-c2cccnc2)SC1=S,28% (inactive)
16,COc1cccc(CNc2ccc(F)c(Cl)c2)c1,39.9% (inactive)
17,O=C(C1CCCO1)N1CCN(c2c3c(nc4cc(-c5ccc(F)cc5)nn24)CCC3)CC1 (stereo not drawn),5.9% (inactive)
18,Cc1cccc(NC(=S)Nc2ccccn2)c1C,-0.54% (inactive)
19,O=C1CC(c2ccccc2)n2nc(NC(=O)C3CCCO3)nc2N1 (stereo not drawn),-5.55% (inactive)
20,COc1ccccc1CNC(=O)CSc1nnc2ccc(-c3cccnc3)nn12,2.18% (inactive)
21,CCCCN1C(=O)C2C3C=CC(C2C1=O)C1C2C(=O)N(CCCC)C(=O)C2C31 (stereo not drawn),28.4% (inactive)
22,O=C(CSc1ncn(-c2ccccc2)n1)Nc1ccc2c(c1)OCCO2,14.5% (inactive)
23,Cn1c(SCc2ccc(C#N)cc2)nnc1-c1cccc(Cl)c1,7.7% (inactive)
